In patent publication US11541029B2, “High penetration compositions and their applications” (Techfields Pharma Co., Ltd., priority 2008, dated 2023):

Key:
[1] = Amount of salicylic acid in rat plasma and brain, 0.3 mmol/kg
Text: 20 male rats were divided into 4 groups (n=5). 0.3 mmol/kg of diethylaminoethyl acetylsalicylate.HCl salt was administrated into rats intramuscularly (20% in 70% ethanol) or transdermally (10% in 70% ethanol, on the shaved back of rat, 10 cm^2) and 0.3 mmol/kg of aspirin was administrated into rats intramuscularly (20% in 70% ethanol) or transdermally (10% in 70% ethanol, on the shaved back of rat, 10 cm^2). […] The plasma or brain tissue (the whole brain was washed with pH 7.4 buffer for 3 times) was homogenized immediately in 3-5 ml of methanol, using a tissue tearor at 30,000 rpm (about 2 min.).

[2] = test system: type 2 diabetes rat models [SLAC/GK(Goto and Kakisaki)]; experiment: Hypoglycemic effects of aspirin and its HPC in GK rats, once per day for 6 weeks; format: in vivo; conditions: for Blood Glucose Levels at day 1 / Blood Glucose Levels at day 42: no fasting, n = 5;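 for Blood Glucose Levels at day 42: blood glucose in mg/dL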
Description: The blood glucose levels were measured three times every week (no fasting) from the third week to the sixth week.

[3] = test system: fungal diseases and insects of grape vine; experiment: Antiviral, anti-fungus, anti-insect activity in red grape vine; format: in vivo
Text: 2 Acres of grape vine was divided into 4 groups (½ acre each). All field operations concerning land preparation and the uses of fertilizers were same for all groups. Group A was control group treated with no chemicals. Group B was normal fungicides and insecticides-treated group. Group C was N,N-diethylaminoethyl acetylsalicylate treated group. Group D was N,N-diethylaminoethyl acetylsalicylate and N,N-diethylaminoethyl jasmonate.citric acid treated group. In group A, black rot, downy mildew, powdery mildew, anthracnose, Phomopsis Blight, and other fungal diseases were found and Grape Berry Moth, Grape Root Borer, Rose Chafer, Japanese beetle, grape tomato gall, and other diseases and insects were found. Yield nothing of good (edible) grapes. In group B, 200 g of Ferbam 76% WP in 100 kg of water was applied to the group B grape vines in November 15; 160 g of sulfur 95% WP and 600 g of hydrated lime in 100 kg of water was applied to the group B grape vines in December 15; 200 g of Daconil 2787 in 100 kg of water was applied to the group B grape vines in March 10; 250 g of Captan 50% WP and 200 g of dimethomorph 50% WP in 100 kg of water was applied to the group B grape vines in March 20; 30 g of (4″R)-4″-deoxy-4″-(methylamino)avermectin B1 benzoate [proclaim ? (banleptm)] […]

With `CCN(CC)CCOC(=O)c1ccccc1OC(C)=O.Cl` [P-1, diethylaminoethyl acetylsalicylate.HCl salt] the “salicylic acid in Plasma (1 hr)” value ([1]; intramuscularly) was 378 ± 34 nmol/mL, the “salicylic acid in Plasma (8 hr)” value ([1]; intramuscularly) was 123 ± 25 nmol/mL and the “salicylic acid in Plasma (18 hr)” value ([1]; intramuscularly) was 0.9 ± 0.2 nmol/mL. The “salicylic acid in Plasma (1 hr)” value ([1]; transdermally) was 158 ± 21 nmol/mL, the “salicylic acid in Plasma (8 hr)” value ([1]; transdermally) was 103 ± 28 nmol/mL and the “salicylic acid in Plasma (18 hr)” value ([1]; transdermally) was 1.1 ± 0.2 nmol/mL. For the same compound, the “Blood Glucose Levels at day 1” value ([2]; 50 mg/kg, orally) was 215.6 ± 19.5 mg/dL, the “Blood Glucose Levels at day 42” value ([2]; 50 mg/kg, orally) was 172.4 ± 21.5 mg/dL and the “Blood Glucose Levels at day 1” value ([2]; 50 mg/kg, transdermally) was 217.3 ± 19.7 mg/dL. For the same compound, the “Blood Glucose Levels at day 42” value ([2]; 50 mg/kg, transdermally) was 135.4 ± 19.8 mg/dL, the “Blood Glucose Levels at day 1” value ([2]; 100 mg/kg, orally) was 216.4 ± 18.5 mg/dL and the “Blood Glucose Levels at day 42” value ([2]; 100 mg/kg, orally) was 133.4 ± 23.1 mg/dL. For the same compound, the “Blood Glucose Levels at day 1” value ([2]; 100 mg/kg, transdermally) was 219.8 ± 20.4 mg/dL, the “Blood Glucose Levels at day 42” value ([2]; 100 mg/kg, transdermally) was 115.4 ± 16.7 mg/dL and the “Blood Glucose Levels at day 1” value ([2]; 200 mg/kg, orally) was 214.4 ± 26.5 mg/dL. The “Blood Glucose Levels at day 42” value ([2]; 200 mg/kg, orally) was 125.4 ± 26.8 mg/dL, the “Blood Glucose Levels at day 1” value ([2]; 200 mg/kg, transdermally) was 219.4 ± 23.5 mg/dL and the “Blood Glucose Levels at day 42” value ([2]; 200 mg/kg, transdermally) was 111.4 ± 23.2 mg/dL. The “Blood Glucose Levels at day 1” value ([2]; 300 mg/kg, orally) was 217.4 ± 25.5 mg/dL, the “Blood Glucose Levels at day 42” value ([2]; 300 mg/kg, orally) was 115.4 ± 18.2 mg/dL and the “anti-diabetic effect, times stronger than that of aspirin” value ([2]; oral administration) was “more than 5 times”. The “Yield of good (edible) grapes” value ([3]; 1/2 acre per group, Malathion co-applied in group C) was 6300 kg and the harvest dates earlier ([3]; groups C and D) was 10 days.
